Among the data in patent publication US9340521B2, “Method for dual inhibition of SGLT1 and SGLT2 using diphenylmethane derivatives” (GREEN CROSS CORPORATION, priority 2013, dated 2016) are IC50 values, retold here.

One assay concerns the target Human SGLT1 (hSGLT1) (Homo sapiens (Human), UniProt P13866). Description: Inhibitory effects on human SGLT1 activities (14C-AMG uptake, sodium-dependent glucose transport assay). The following applies: 37° C. for 2 h, single determinations. It is filed as cell-based. As for the experimental part:
Test 3: Inhibitory Effects on Human SGLT1 Activities
(§1) For sodium-dependent glucose transport assay, cells expressing […] were seeded into a 96-well culture plate at a density of 5×10^4 cells/well in RPMI medium 1640 containing 10% fetal bovine serum. The cells were used 1 day after plating. They were incubated in pretreatment buffer (10 mM HEPES, 5 mM Tris, 140 mM choline chloride, 2 mM KCl, 1 mM CaCl2, and 1 mM MgCl2, pH 7.4) at 37° C. for 10 min. They were then incubated in uptake buffer (10 mM HEPES, 5 mM Tris, 140 mM NaCl, 2 mM KCl, 1 mM CaCl2, 1 mM MgCl2, and 1 mM ^14C-nonlabeled AMG pH 7.4) containing ^14C-labeled (8 μM) and inhibitor or dimethyl sulfoxide (DMSO) vehicle at 37° C. for 2 h. Cells were washed twice with washing buffer (pretreatment buffer containing 10 mM AMG at room temperature) and then the radioactivity was measured using a liquid scintillation counter. IC50 was determined by nonlinear regression analysis using GraphPad PRISM.

In a further assay the target is Human SGLT2 (hSGLT2) (Homo sapiens (Human), UniProt P31639). In words: Inhibitory effects on human SGLT2 activities (14C-AMG uptake, sodium-dependent glucose transport assay). The class given is cell-based. The following applies: hSGLT2-expressing CHO cells, 37° C. for 2 h, single determinations.
Human SGLT2 (hSGLT2), sequence (P31639 whole entry): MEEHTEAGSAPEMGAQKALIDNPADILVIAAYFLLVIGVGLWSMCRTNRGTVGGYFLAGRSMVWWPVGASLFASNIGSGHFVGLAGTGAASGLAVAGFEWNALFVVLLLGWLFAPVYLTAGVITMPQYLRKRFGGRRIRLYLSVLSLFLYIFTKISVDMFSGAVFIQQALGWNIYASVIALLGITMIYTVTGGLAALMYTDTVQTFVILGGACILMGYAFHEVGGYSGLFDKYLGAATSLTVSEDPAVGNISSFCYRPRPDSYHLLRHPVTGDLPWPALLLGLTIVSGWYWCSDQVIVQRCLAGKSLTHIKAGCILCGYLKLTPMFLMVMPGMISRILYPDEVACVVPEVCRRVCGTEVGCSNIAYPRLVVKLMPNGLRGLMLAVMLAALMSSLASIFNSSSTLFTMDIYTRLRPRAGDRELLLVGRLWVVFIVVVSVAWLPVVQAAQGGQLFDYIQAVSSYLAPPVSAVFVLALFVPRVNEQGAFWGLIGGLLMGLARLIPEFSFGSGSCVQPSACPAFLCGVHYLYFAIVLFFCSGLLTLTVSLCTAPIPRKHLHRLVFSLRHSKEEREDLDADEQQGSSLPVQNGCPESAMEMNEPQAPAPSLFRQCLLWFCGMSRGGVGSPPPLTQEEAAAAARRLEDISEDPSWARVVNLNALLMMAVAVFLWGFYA
Source text: Test 1: Cloning and Cell Line Construction for Human SGLT2
Human SGLT2 (hSGLT2) gene was amplified by PCR from cDNA-Human Adult Normal Tissue Kidney (Invitrogen). The hSGLT2 sequence was cloned into pcDNA3.1(+) for mammalian expression and stably transfected into chinese hamster ovary (CHO) cells. SGLT2-expressing clones were selected based on resistance to G418 antibiotic (Geneticin) and activity in the ^14C-α-methyl-D-glucopyranoside (^14C-AMG) uptake assay.
Test 2: Inhibitory Effects on Human SGLT2 Activities
as §1, with “^14C-labeled AMG” for “^14C-labeled”, “the inventive compound” for “inhibitor”, “PRISM [Katsuno, K. et al. J. Pharmacol. Exp. Ther. 2007, 320, 323-330; Han, S. et al. Diabetes, 2008, 57, 1723-1729].” for “PRISM.”

Human SGLT1 (hSGLT1), sequence (P13866 whole entry): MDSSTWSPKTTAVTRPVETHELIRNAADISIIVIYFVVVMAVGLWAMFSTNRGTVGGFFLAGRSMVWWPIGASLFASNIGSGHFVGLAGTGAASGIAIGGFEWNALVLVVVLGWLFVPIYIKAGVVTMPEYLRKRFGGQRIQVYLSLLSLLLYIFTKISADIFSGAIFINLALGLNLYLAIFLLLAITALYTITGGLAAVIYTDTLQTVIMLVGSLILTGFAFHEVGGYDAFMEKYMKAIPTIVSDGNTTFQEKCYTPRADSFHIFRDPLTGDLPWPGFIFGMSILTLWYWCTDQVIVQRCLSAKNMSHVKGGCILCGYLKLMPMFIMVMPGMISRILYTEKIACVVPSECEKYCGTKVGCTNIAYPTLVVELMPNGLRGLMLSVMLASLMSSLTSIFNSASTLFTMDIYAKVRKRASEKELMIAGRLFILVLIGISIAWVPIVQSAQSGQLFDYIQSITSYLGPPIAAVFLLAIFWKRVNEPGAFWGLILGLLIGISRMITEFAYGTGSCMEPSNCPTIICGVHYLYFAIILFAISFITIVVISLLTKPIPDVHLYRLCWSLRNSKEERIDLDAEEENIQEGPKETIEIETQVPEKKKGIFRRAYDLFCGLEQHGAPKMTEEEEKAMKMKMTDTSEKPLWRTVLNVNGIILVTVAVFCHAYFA

Usually IC50 stands for the concentration needed to halve the response being measured. A low value points to greater potency in that assay. With `CCOc1ccc(Cc2cc([C@@H]3O[C@H](CO)[C@@H](O)[C@H](O)[C@H]3O)c3c(c2Cl)CCO3)cc1` [Compound E013, (2S,3R,4R,5S,6R)-2-(4-Chloro-5-(4-ethoxybenzyl)-2,3-dihydrobenzofuran-7-yl)-6-(hydroxymethyl)tetrahydro-2H-pyran-3,4,5-triol], the IC50 is 105 nM at Human SGLT1 (hSGLT1) and 0.83 nM on Human SGLT2 (hSGLT2).

On to `OC[C@H]1O[C@@H](c2cc(Cc3cc4ccccc4s3)c(Cl)c3c2CCO3)[C@H](O)[C@@H](O)[C@@H]1O` [Compound E055, (2S,3R,4R,5S,6R)-2-(6-(Benzo[b]thiophen-2-ylmethyl)-7-chloro-2,3-dihydrobenzofuran-4-yl)-6-(hydroxymethyl)tetrahydro-2H-pyran-3,4,5-triol], for which the figures for the IC50 on Human SGLT1 (hSGLT1) and against Human SGLT2 (hSGLT2) were 148 nM and 1.4 nM, respectively.

For the compound `CCc1ccc(Cc2cc([C@@H]3O[C@H](CO)[C@@H](O)[C@H](O)[C@H]3O)c3c(c2Cl)OCCO3)cc1` [Compound E016, (2S,3R,4R,5S,6R)-2-(8-Chloro-7-(4-ethylbenzyl)-2,3-dihydrobenzo[b][1,4]dioxin-5-yl)-6-(hydroxymethyl)tetrahydro-2H-pyran-3,4,5-triol], the IC50 turned out to be 83 nM against Human SGLT1 (hSGLT1) and 0.92 nM against Human SGLT2 (hSGLT2).

Turning to `COc1ccc(Cc2cc([C@@H]3O[C@H](CO)[C@@H](O)[C@H](O)[C@H]3O)c3c(c2C)CCCC3)cc1` [Compound E037, (2R,3S,4R,5R,6S)-2-(Hydroxymethyl)-6-(3-(4-methoxybenzyl)-4-methyl-5,6,7,8-tetrahydronaphthalen-1-yl)tetrahydro-2H-pyran-3,4,5-triol], the IC50 on Human SGLT1 (hSGLT1) came to 10.5 nM; against Human SGLT2 (hSGLT2) it was 0.86 nM.

Turning to `CCOc1ccc(Cc2cc([C@@H]3O[C@H](CO)[C@@H](O)[C@H](O)[C@H]3O)c3c(c2Cl)SCC3)cc1` [Compound E059, (2S,3R,4R,5S,6R)-2-(7-Chloro-6-(4-ethoxybenzyl)-2,3-dihydrobenzo[b]thiophen-4-yl)-6-(hydroxymethyl)tetrahydro-2H-pyran-3,4,5-triol], the values for the IC50 at Human SGLT1 (hSGLT1) and against Human SGLT2 (hSGLT2) were 95.1 nM and 1.1 nM, respectively.

Take `COc1ccc(Cc2cc([C@@H]3O[C@H](CO)[C@@H](O)[C@H](O)[C@H]3O)c3c(c2Cl)OCCC3)cc1` [Compound E023, (2S,3R,4R,5S,6R)-2-(8-Chloro-7-(4-methoxybenzyl)chroman-5-yl)-6-(hydroxymethyl)tetrahydro-2H-pyran-3,4,5-triol]: the IC50 against Human SGLT1 (hSGLT1) is 78.1 nM; against Human SGLT2 (hSGLT2) it was 2.1 nM.

In the case of `OC[C@H]1O[C@@H](c2cc(Cc3ccc(C4CC4)cc3)c(Cl)c3c2OCCC3)[C@H](O)[C@@H](O)[C@@H]1O` [Compound E018, (2S,3R,4R,5S,6R)-2-(5-Chloro-6-(4-cyclopropylbenzyl)chroman-8-yl)-6-(hydroxymethyl)tetrahydro-2H-pyran-3,4,5-triol], the IC50 on Human SGLT1 (hSGLT1) is 26.6 nM; at Human SGLT2 (hSGLT2), 0.85 nM.

For the compound `Cc1ccc(Cc2cc([C@@H]3O[C@H](CO)[C@@H](O)[C@H](O)[C@H]3O)c3c(c2Cl)OCCC3)cc1` [Compound E045, (2S,3R,4R,5S,6R)-2-(8-Chloro-7-(4-methylbenzyl)chroman-5-yl)-6-(hydroxymethyl)tetrahydro-2H-pyran-3,4,5-triol], the IC50 against Human SGLT1 (hSGLT1) came out at 36.7 nM; on Human SGLT2 (hSGLT2), 1.9 nM.

Turning to `OC[C@H]1O[C@@H](c2cc(Cc3cc4ccccc4s3)c(Cl)c3c2OCCO3)[C@H](O)[C@@H](O)[C@@H]1O` [Compound E056, (2S,3R,4R,5S,6R)-2-(7-(Benzo[b]thiophen-2-ylmethyl)-8-chloro-2,3-dihydrobenzo[b][1,4]dioxin-5-yl)-6-(hydroxymethyl)tetrahydro-2H-pyran-3,4,5-triol], the IC50 was 14 nM at Human SGLT1 (hSGLT1) and 2.2 nM on Human SGLT2 (hSGLT2).

Regarding `Cc1ccc(Cc2cc([C@@H]3O[C@H](CO)[C@@H](O)[C@H](O)[C@H]3O)c3c(c2Cl)CCO3)cc1` [Compound E046, (2S,3R,4R,5S,6R)-2-(4-Chloro-5-(4-methylbenzyl)-2,3-dihydrobenzofuran-7-yl)-6-(hydroxymethyl)tetrahydro-2H-pyran-3,4,5-triol], the IC50 against Human SGLT1 (hSGLT1) turned out to be 29.9 nM; against Human SGLT2 (hSGLT2), 1.4 nM.

Regarding `CCc1ccc(Cc2cc([C@@H]3O[C@H](CO)[C@@H](O)[C@H](O)[C@H]3O)c3c(c2Cl)CCC3)cc1` [Compound E033, (2S,3R,4R,5S,6R)-2-(7-Chloro-6-(4-ethylbenzyl)-2,3-dihydro-1H-inden-4-yl)-6-(hydroxymethyl)tetrahydro-2H-pyran-3,4,5-triol], the IC50 at Human SGLT1 (hSGLT1) is 57.2 nM; against Human SGLT2 (hSGLT2) it was 0.63 nM.

Regarding `OC[C@H]1O[C@@H](c2cc(Cc3ccc(C4CC4)cc3)c(Cl)c3c2OCC3)[C@H](O)[C@@H](O)[C@@H]1O` [Compound E017, (2S,3R,4R,5S,6R)-2-(4-Chloro-5-(4-cyclopropylbenzyl)-2,3-dihydrobenzofuran-7-yl)-6-(hydroxymethyl)tetrahydro-2H-pyran-3,4,5-triol], the IC50 came to 52.2 nM on Human SGLT1 (hSGLT1) and 1.1 nM on Human SGLT2 (hSGLT2).

On to `COc1ccc(Cc2cc([C@@H]3O[C@H](CO)[C@@H](O)[C@H](O)[C@H]3O)c3c(c2C)OCO3)cc1` [Compound E063, (2R,3S,4R,5R,6S)-2-(Hydroxymethyl)-6-(6-(4-methoxybenzyl)-7-methylbenzo[d][1,3]dioxol-4-yl)tetrahydro-2H-pyran-3,4,5-triol], for which the IC50 against Human SGLT1 (hSGLT1) amounted to 66.2 nM; against Human SGLT2 (hSGLT2) it was 1.6 nM.

As to `OC[C@H]1O[C@@H](c2cc(Cc3ccc(C4CC4)cc3)c(Cl)c3c2OCO3)[C@H](O)[C@@H](O)[C@@H]1O` [Compound E024, (2S,3R,4R,5S,6R)-2-(7-Chloro-6-(4-cyclopropylbenzyl)benzo[d][1,3]dioxol-4-yl)-6-(hydroxymethyl)tetrahydro-2H-pyran-3,4,5-triol], the results for the IC50 against Human SGLT1 (hSGLT1) and against Human SGLT2 (hSGLT2) were 53 nM and 0.37 nM, respectively.

For `OC[C@H]1O[C@@H](c2cc(Cc3ccc(-c4ccc(F)cc4)s3)c(Cl)c3c2OCCO3)[C@H](O)[C@@H](O)[C@@H]1O` [Compound E054, (2S,3R,4R,5S,6R)-2-(8-Chloro-7-((5-(4-fluorophenyl)thiophen-2-yl)methyl)-2,3-dihydrobenzo[b][1,4]dioxin-5-yl)-6-(hydroxymethyl)tetrahydro-2H-pyran-3,4,5-triol], the IC50 is 125 nM against Human SGLT1 (hSGLT1) and 1.1 nM against Human SGLT2 (hSGLT2).

Take `COc1ccc(Cc2cc([C@@H]3O[C@H](CO)[C@@H](O)[C@H](O)[C@H]3O)c3c(c2Cl)SCC3)cc1` [Compound E034, (2S,3R,4R,5S,6R)-2-(7-Chloro-6-(4-methoxybenzyl)-2,3-dihydrobenzo[b]thiophen-4-yl)-6-(hydroxymethyl)tetrahydro-2H-pyran-3,4,5-triol]: the IC50 against Human SGLT1 (hSGLT1) was 27.6 nM; at Human SGLT2 (hSGLT2) it was 0.9 nM.

For the compound `CCOc1ccc(Cc2cc([C@@H]3O[C@H](SC)[C@@H](O)[C@H](O)[C@H]3O)c3c(c2Cl)OCCO3)cc1` [Compound E021, (2S,3R,4R,5S,6R)-2-(8-Chloro-7-(4-ethoxybenzyl)-2,3-dihydrobenzo[b][1,4]dioxin-5-yl)-6-(methylthio)tetrahydro-2H-pyran-3,4,5-triol], the IC50 at Human SGLT1 (hSGLT1) worked out at 166 nM; against Human SGLT2 (hSGLT2), 0.71 nM.

For `Cc1ccc(Cc2cc3c(c([C@@H]4O[C@H](CO)[C@@H](O)[C@H](O)[C@H]4O)c2)CCC3)cc1` [Compound E041, (2R,3S,4R,5R,6S)-2-(Hydroxymethyl)-6-(6-(4-methylbenzyl)-2,3-dihydro-1H-inden-4-yl)tetrahydro-2H-pyran-3,4,5-triol], the IC50 is 91 nM against Human SGLT1 (hSGLT1) and 8 nM on Human SGLT2 (hSGLT2).

As to `CCOc1ccc(Cc2cc([C@@H]3O[C@H](CO)[C@@H](O)[C@H](O)[C@H]3O)c3c(c2Cl)CCC3)cc1` [Compound E006, (2S,3R,4R,5S,6R)-2-(7-Chloro-6-(4-ethoxybenzyl)-2,3-dihydro-1H-inden-4-yl)-6-(hydroxymethyl)tetrahydro-2H-pyran-3,4,5-triol], the IC50 against Human SGLT1 (hSGLT1) was found to be 116 nM; against Human SGLT2 (hSGLT2) it was 0.55 nM.

Regarding `COc1ccc(Cc2cc([C@@H]3O[C@H](CO)[C@@H](O)[C@H](O)[C@H]3O)c3c(c2C(F)F)CCC3)cc1` [Compound E032, (2S,3R,4R,5S,6R)-2-(7-(Difluoromethyl)-6-(4-methoxybenzyl)-2,3-dihydro-1H-inden-4-yl)-6-(hydroxymethyl)tetrahydro-2H-pyran-3,4,5-triol], the IC50 against Human SGLT1 (hSGLT1) came out at 16.5 nM; against Human SGLT2 (hSGLT2), 0.73 nM.
